This passage reports inhibition and IC50 results from patent US7691844B2, “Nonpeptide substituted spirobenzoazepines as vasopressin antagonists” (Ortho-McNeil Pharmaceutical, Inc., priority 2000, dated 2010).

In one test the target is V1a (Homo sapiens, UniProt P37288). Kind of test: In-vitro receptor binding assay (3H-arginine-8-vasopressin), V1a. As to conditions: for inhibition at 0.1 µM: read-out: Receptor Binding V1a (% Inh. @ concentration in μM). As for the experimental part:
(§1) (A) In-Vitro Binding Assay […] The reaction plates are allowed to sit at room temperature for one hour. The samples are filtered through Unifilter GF/C plates (presoaked in 0.3 polyethyleneimine). The plates are washed 5 times with cold physiological saline containing 0.05% Tween 20. After drying, the bottom of the filter plates are sealed and 0.025 ml of Microscint-20 is added to each filter. The top of the plate is sealed, and the plate is counted. Non-specific binding is determined by the addition of 1.25 μM […]-vasopressin in those wells. % Inh. is calculated as follows: […]

The target in the next test is human V2 receptor (Homo sapiens, UniProt P30518). Put plainly: In-vitro receptor binding assay (3H-arginine-8-vasopressin), V2. Conditions: for inhibition at 0.1 µM / inhibition at 1 µM: read-out: Receptor Binding V2 (% Inh. @ concentration in μM). As for the experimental part:
as §1

Sequence of human V2 receptor (P30518 whole entry): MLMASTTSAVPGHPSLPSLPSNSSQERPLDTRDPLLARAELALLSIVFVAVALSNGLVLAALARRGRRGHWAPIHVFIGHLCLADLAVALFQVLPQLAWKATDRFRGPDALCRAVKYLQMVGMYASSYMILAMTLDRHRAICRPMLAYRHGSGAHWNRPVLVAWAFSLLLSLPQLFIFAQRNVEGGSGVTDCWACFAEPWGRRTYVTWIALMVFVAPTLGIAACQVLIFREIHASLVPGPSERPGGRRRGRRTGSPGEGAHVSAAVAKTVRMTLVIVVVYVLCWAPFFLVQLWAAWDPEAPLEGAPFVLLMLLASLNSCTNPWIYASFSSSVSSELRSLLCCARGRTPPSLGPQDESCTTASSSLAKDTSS
Sequence of V1a (P37288 whole entry): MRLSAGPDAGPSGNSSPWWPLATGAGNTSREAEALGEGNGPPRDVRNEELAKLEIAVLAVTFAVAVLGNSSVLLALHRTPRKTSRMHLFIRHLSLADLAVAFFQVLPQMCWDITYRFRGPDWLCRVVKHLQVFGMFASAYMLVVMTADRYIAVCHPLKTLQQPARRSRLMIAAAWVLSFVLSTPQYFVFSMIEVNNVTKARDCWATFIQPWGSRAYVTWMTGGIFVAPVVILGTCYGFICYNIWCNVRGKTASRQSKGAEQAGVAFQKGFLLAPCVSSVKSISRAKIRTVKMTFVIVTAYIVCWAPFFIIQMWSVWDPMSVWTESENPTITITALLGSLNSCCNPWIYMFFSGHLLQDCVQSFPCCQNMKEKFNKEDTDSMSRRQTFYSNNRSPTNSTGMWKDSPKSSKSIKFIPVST

On to `Cc1ccc(F)cc1C(=O)Nc1ccc(C(=O)N2CCC3(C=C(C=O)CC3)Cc3ccccc32)c(Cl)c1` (centres unmarked) [Compound 138], for which the inhibition at 0.1 µM at V1a is 35%; at human V2 receptor, 57%.
For `CNCC1=CC2(CC1)CCN(C(=O)c1ccc(NC(=O)c3cc(F)ccc3C)cc1Cl)c1ccccc1C2` (centres unmarked) [Compound 139], the figures for the inhibition at 0.1 µM at V1a and at human V2 receptor were 0% and 17%, respectively.
Turning to `COCCN1CCN(CC2=CC3(CC2)CCN(C(=O)c2ccc(NC(=O)c4cc(F)ccc4C)cc2Cl)c2ccccc2C3)CC1` (centres unmarked) [Compound 140], the inhibition at 0.1 µM was 41% at V1a and 65% on human V2 receptor.
Usually IC50 stands for the midpoint of a concentration-inhibition curve. Read a high IC50 as lower potency. For `Cc1ccc(F)cc1C(=O)Nc1ccc(C(=O)N2CCC3(C=C(CN4CCN(CCN5CCOCC5)CC4)CC3)Cc3ccccc32)c(Cl)c1` (centres unmarked) [Compound 141], the inhibition at 0.1 µM at V1a came out at 44%. The compound also registered an IC50 on human V2 receptor of 0.056 µM.
For the compound `Cc1ccc(F)cc1C(=O)Nc1ccc(C(=O)N2CCC3(C=C(CN4CCN(c5ccncc5)CC4)CC3)Cc3ccccc32)c(Cl)c1` (centres unmarked) [Compound 142], the inhibition at 0.1 µM turned out to be 25% on V1a and 69% on human V2 receptor.
For `Cc1ccc(F)cc1C(=O)Nc1ccc(C(=O)N2CCC3(C=C(C(=O)O)CC3)Cc3ccccc32)c(Cl)c1` (centres unmarked) [Compound 143] the same measures were 10% and 67%.
Turning to `O=CC1=C[C@@]2(CC1)CCN(C(=O)c1ccc(NC(=O)c3ccccc3F)cc1Cl)c1ccccc1C2` [Compound 144], the IC50 at V1a is 0.008 µM. Also, the inhibition at 0.1 µM at human V2 receptor came out at 9%.
Turning to `O=C(Nc1ccc(C(=O)N2CCC3(C=C(C(=O)N4CCN(c5ccncc5)CC4)CC3)Cc3ccccc32)cc1)c1ccccc1-c1ccccc1` (centres unmarked) [Compound 145], the inhibition at 0.1 µM on V1a amounted to 66%. Also, at human V2 receptor, the IC50 turned out to be 0.066 µM.
For `O=C(Nc1ccc(C(=O)N2CCC3(C=C(C(=O)N(CCN4CCOCC4)CCN4CCOCC4)CC3)Cc3ccccc32)cc1)c1ccccc1-c1ccccc1` (centres unmarked) [Compound 146], the inhibition at 0.1 µM was determined as 48% at V1a and 39% at human V2 receptor.
On to `COC(=O)c1ccc(C(=O)N2Cc3ccccc3CC3(C=CCCC3)C2)cc1` (centres unmarked) [Compound 149], for which, at V1a, the IC50 was determined as 0.56 µM. Moreover, the inhibition at 1 µM on human V2 receptor was 54%.
For `Cc1ccn(-c2ccc(C(=O)N3CCC4(C=CCCC4)Cc4ccccc43)cc2-n2ccc(C)n2)n1` (centres unmarked) [Compound 151], in that order: 0.042 µM and 20%.
For the compound `O=Cc1ccn(-c2ccc(C(=O)N3CCC4(C=CCCC4)Cc4ccccc43)cc2)c1` (centres unmarked) [Compound 152], the IC50 at V1a is 0.084 µM. Moreover, the inhibition at 1 µM at human V2 receptor was 13%.
For `COc1ccc(C(=O)N2Cc3ccccc3CC3(C=CCCC3)C2)cc1OC` (centres unmarked) [Compound 153] the same measures were 0.55 µM and 0%.
At V1a, `O=C(c1ccc(-n2ccc(CO)c2)cc1)N1CCC2(C=CCCC2)Cc2ccccc21` (centres unmarked) [Compound 154] gave a half-inhibitory concentration (IC50) of 0.025 µM. Besides, the inhibition at 1 µM at human V2 receptor was found to be 36%.
At V1a, `O=C(c1ccc(-n2cccn2)c(-n2cccn2)c1)N1CCC2(C=CCCC2)Cc2ccccc21` (centres unmarked) [Compound 155] had an IC50 of 0.13 µM. Besides, at human V2 receptor, the inhibition at 1 µM was determined as 2%.
At V1a, `O=C(c1ccc(-n2cccn2)c(F)c1)N1CCC2(C=CCCC2)Cc2ccccc21` (centres unmarked) [Compound 156, 4-(3-Fluoro-4-(pyrazol-1-yl)benzoyl)-4-aza-[6,5]-spiro-[5,6]-benzododec-2′-ene] came in with a 50% inhibitory concentration (IC50) of 0.11 µM. The inhibition at 1 µM on human V2 receptor amounted to 13%.
Take `Cc1ccc(F)cc1C(=O)Nc1ccc(C(=O)N2CCC3(C=C(C(=O)NCCCN4CCCC4)CC3)Cc3ccccc32)cc1` (centres unmarked) [Compound 157]: the IC50 at V1a came out at 0.016 µM; on human V2 receptor, 0.038 µM.
For the compound `Cc1ccc(F)cc1C(=O)Nc1ccc(C(=O)N2CCC3(C=C(C(=O)NCCCN4CCOCC4)CC3)Cc3ccccc32)cc1` (centres unmarked) [Compound 158], the IC50 on V1a turned out to be 0.016 µM; at human V2 receptor it was 0.039 µM.
On to `Cc1ccc(F)cc1C(=O)Nc1ccc(C(=O)N2CCC3(C=C(C(=O)NCCO)CC3)Cc3ccccc32)cc1` (centres unmarked) [Compound 159], for which the 50% inhibitory concentration (IC50) worked out at 0.011 µM on V1a and 0.047 µM at human V2 receptor.
